Measurements published in article PMC9140012, “Epigenetic-Like Stimulation of Receptor Expression in SSTR2 Transfected HEK293 Cells as a New Therapeutic Strategy” (Cancers, 2022).
Where a name gives a salt, the structure may show the parent alone. Read-outs that look alike come from different tables or passages of the source.

Columns and labels:
[1] = tested on: cell lines HEKsst2 and PC3; experiment: IC20/IC40 of single epidrugs by colony formation assay, HEKsst2 and PC3; assay type: cell-based
Protocol: (§1) HEKsst2 and PC3 were plated in T75 flasks on day zero. […] Cells were incubated in DMEM (HEKsst2) or an RPMI 1640 (PC3) nutrient-deficient medium (lacking medium additives and FCS) until day three at 37 °C. For a further two days, HEKsst2 and PC3 were incubated in a full medium (with medium additives and FCS). On day five, cells were trypsinized and plated for the CFAs.
(§2) To determine the radiosensitivity and radiotoxicity, the clonogene cell survival was analyzed. Colony formation assays were performed as described earlier. The following steps have been done for each of the treatment procedures. Briefly, after detaching the treated cells, an aliquot of the cell suspension per dose point was distributed in T25 culture flasks for the colony formation test and is placed in an incubator for 7 (HEKsst2) or 10 days (PC3). To stop colony formation, the cells were fixed with ethanol 80% (v/v) followed by staining with crystal violet solution. The colony counting was carried out under a microscope (25× magnification). Colonies of more than 50 cells were scored as survivors. The plating efficiency (PE) and the survival rate (survival fraction SF) were calculated for irradiated and unirradiated cells based on the number of seeded cells.
To determine the Bmax values and the Kd, the GraphPad Prism 9.0 software was used. Confidence Intervals (CI) express a 95% likelihood of the nonlinear fit.

PC3 [2] = details: PC3 compared to HEKsst2; cited from earlier work
From the text: The radiosensitivity expressed as SF after external X-ray irradiation is similar for the cell lines HEKsst2 and PC3 (Figure 4). […] One exception is the dose point at 0.6 Gy X-rays for not stimulated vs. stimulated PC3 cells. […] Whereas the radiosensitivity of non-stimulated HEK ...

PC3 [3] = experiment: Chemotoxicity, colony formation assay (CFA), PC3; assay type: cell-based, human; details: for Survival Fraction: day one to three in deficient RPMI 1640, 2 days full medium, CFA, ± SD; for IC50: Homo sapiens, PC-3
Protocol: (§3) HEK293 cells were obtained from the German Resource Center for Biological Material (DSMZ, Braunschweig, Germany) and grown in Dulbecco’s modified Eagle´s medium supplemented with 10% fetal calf serum (FCS) in a humidified atmosphere containing 5% CO2. Cells were transfected with plasmid, encoding murine HA-tagged SSTR2 receptors using lipofectamine according to the manufacturing instructions (Thermofisher, Darmstadt, Germany). Stable transfectants were selected in the presence of 500 µg/mL G-418 and characterized using radioligand binding assays, Western blot analyses, surface ELISA assays and immunocytochemistry as described previously. Non-transfected HEK293 cells were maintained under equal conditions as HEKsst2 except for the addition of G-418. In the following, HEK293 cells and SSTR2 transfected HEK293 cells are termed as HEK and HEKsst2, respectively. The human prostate carcinoma cell line PC3 (ATCC®, Manassas, VA, USA) was cultured in a RPMI medium with 10% (v/v) FCS and 1% (v/v) non-essential amino acids (NEA). […] The culture medium of each cell line was renewed every 2–3 days. Via a PCR test, each cell line is proven to be free of mycoplasmas.
as §1
as §2, with “The following steps have been done for each of the treatment procedures.” left out
(§4) To examine the statistical significance, an unpaired student’s t-test was used. A difference between two independent samples is significant if the probability of error p ≤ 0.05. For the statistical evaluation, MS Office Excel was used. […]

HEKsst2 = experiment: Chemotoxicity, colony formation assay (CFA), HEKsst2; assay type: cell-based; details: for IC50: read-out: half maximum inhibitor concentrations (IC50)
Protocol: as §3, §1
as §2, with “The following steps have been done for each of the treatment procedures.” left out
as §4

[4] = set-up: method as in PMID 25600060; details: fractionated external radiation; cited from earlier work
[5] = tested on: relapsed or refractory neuroblastoma; set-up: method as in PMID 34270348; details: I-131-MIBG in combination with vorinostat, phase II; cited from earlier work
From the text: An overview of studies investigating the synergistic improvement of cancer therapy using HDACi in clinical trials is given by Hontecillas-Prieto et al..

[6] = tested on: Neuroendocrine Tumor Cells; set-up: method as in PMID 30796167; details: 5-fluorouracil in combination with decitabine or tacedinaline; cited from earlier work

Question: With `Nc1ncn([C@H]2C[C@H](O)[C@@H](CO)O2)c(=O)n1` [5-aza-dC, 5-aza-2′-deoxycytidine] as the compound, how does the IC20 ([1]; 5-aza-dC, value used for both HEKsst2 and PC3, CFA) read?
Answer: 0.25 µM

Question: What about the “survival of 5-aza-dC treated cells” value (PC3 [2]) of the same compound?
Answer: lower survival

Question: And the “Survival Fraction” value (PC3 [3]; 0.01 µM 5-aza-dC)?
Answer: 67.1 ± 3.3%

Question: And the “Survival Fraction” value (PC3 [3]; 0.05 µM 5-aza-dC)?
Answer: 52.1 ± 19.0%

Question: What about the “Survival Fraction” value (PC3 [3]; 0.1 µM 5-aza-dC) of the same compound?
Answer: 69.4 ± 2.1%

Question: And the “Survival Fraction” value (PC3 [3]; 0.5 µM 5-aza-dC)?
Answer: 41.6 ± 1.8%

Question: What about the “Survival Fraction” value (PC3 [3]; 1.0 µM 5-aza-dC) of the same compound?
Answer: 24.9 ± 2.0%

Question: And the “Survival Fraction” value (PC3 [3]; 5.0 µM 5-aza-dC)?
Answer: 27.5 ± 3.2%

Question: And the “Survival Fraction” value (PC3 [3]; 10 µM 5-aza-dC)?
Answer: 9.4 ± 0.3%

Question: And the “Survival Fraction” value (PC3 [3]; 25 µM 5-aza-dC)?
Answer: 1.9 ± 0.02%

Question: What about the IC50 (PC3 [3]) of the same compound?
Answer: 0.3 µM

Question: And the “Survival Fraction” value (HEKsst2; 0.01 µM 5-aza-dC, added day one to day three in nutrient-deficient DMEM, then 2 days full medium, CFA day five, mean ± SD, three independent trials in triplicate)?
Answer: 97.9 ± 1.8%

Question: What about the “Survival Fraction” value (HEKsst2; 0.05 µM 5-aza-dC, day one to three in deficient medium, 2 days full medium, CFA, ± SD) of the same compound?
Answer: 118.0 ± 31%

Question: What about the “Survival Fraction” value (HEKsst2; 0.1 µM 5-aza-dC, day one to three in deficient medium, 2 days full medium, CFA, ± SD) of the same compound?
Answer: 83.2 ± 4.8%

Question: And the “Survival Fraction” value (HEKsst2; 0.5 µM 5-aza-dC, day one to three in deficient medium, 2 days full medium, CFA, ± SD)?
Answer: 96.6 ± 13.2%

Question: What about the “Survival Fraction” value (HEKsst2; 1.0 µM 5-aza-dC, day one to three in deficient medium, 2 days full medium, CFA, ± SD) of the same compound?
Answer: 93.7 ± 1.3%

Question: And the “Survival Fraction” value (HEKsst2; 5.0 µM 5-aza-dC, day one to three in deficient medium, 2 days full medium, CFA, ± SD)?
Answer: 42.3 ± 4.8%

Question: What about the “Survival Fraction” value (HEKsst2; 10 µM 5-aza-dC, day one to three in deficient medium, 2 days full medium, CFA, ± SD) of the same compound?
Answer: 18.6 ± 0.8%

Question: What about the “Survival Fraction” value (HEKsst2; 25 µM 5-aza-dC, day one to three in deficient medium, 2 days full medium, CFA, ± SD) of the same compound?
Answer: 1.7 ± 0.4%

Question: And the IC50 (HEKsst2; 5-aza-dC as single epidrug, HEKsst2, CFA)?
Answer: 3.9 µM

Question: With `CCCC(CCC)C(=O)O` [VPA, valproic acid sodium salt] as the compound, how does the IC20 [1] read?
Answer: 600 µM

Question: And the IC40 ([1]; VPA, value used for both HEKsst2 and PC3, CFA)?
Answer: 1000 µM

Question: What about the radiosensitization [4] of the same compound?
Answer: radiosensitization effect

Question: What about the Survival Fraction (PC3 [3]; 0.1 mM VPA) of the same compound?
Answer: 95.6 ± 4.5%

Question: What about the Survival Fraction (PC3 [3]; 0.5 mM VPA) of the same compound?
Answer: 95.6 ± 2.3%

Question: And the Survival Fraction (PC3 [3]; 1.0 mM VPA)?
Answer: 72.6 ± 11.6%

Question: And the Survival Fraction (PC3 [3]; 2.5 mM VPA)?
Answer: 69.4 ± 6.0%

Question: And the Survival Fraction (PC3 [3]; 5.0 mM VPA)?
Answer: 35.1 ± 4.6%

Question: What about the Survival Fraction (PC3 [3]; 10 mM VPA) of the same compound?
Answer: 24.0 ± 1.2%

Question: What about the Survival Fraction (PC3 [3]; 25 mM VPA) of the same compound?
Answer: 1.2 ± 1.1%

Question: And the Survival Fraction (PC3 [3]; 50 mM VPA)?
Answer: 1.7 ± 1.1%

Question: And the IC50 (PC3 [3]; read-out: IC50)?
Answer: 3900 µM

Question: And the Survival Fraction (HEKsst2; 0.5 mM VPA, day one to three in deficient medium, 2 days full medium, CFA, ± SD)?
Answer: 78.7 ± 10.8%

Question: What about the Survival Fraction (HEKsst2; 1.0 mM VPA, day one to three in deficient medium, 2 days full medium, CFA, ± SD) of the same compound?
Answer: 67.5 ± 15.9%

Question: What about the Survival Fraction (HEKsst2; 2.5 mM VPA, day one to three in deficient medium, 2 days full medium, CFA, ± SD) of the same compound?
Answer: 18.5 ± 2.2%

Question: And the Survival Fraction (HEKsst2; 5.0 mM VPA, day one to three in deficient medium, 2 days full medium, CFA, ± SD)?
Answer: 21.0 ± 5.1%

Question: And the Survival Fraction (HEKsst2; 10 mM VPA, day one to three in deficient medium, 2 days full medium, CFA, ± SD)?
Answer: 53.5 ± 5.8%

Question: And the Survival Fraction (HEKsst2; 25 mM VPA, day one to three in deficient medium, 2 days full medium, CFA, ± SD)?
Answer: 8.0 ± 0.8%

Question: What about the IC50 (HEKsst2) of the same compound?
Answer: 1850 µM

Question: For `O=C(CCCCCCC(=O)Nc1ccccc1)NO` [vorinostat], which radiation sensitizing [5] is on record?
Answer: beneficial radiation sensitizing properties

Question: Which radiosensitization [6] does the source give for `O=c1[nH]cc(F)c(=O)[nH]1` [5-fluorouracil] here?
Answer: significant effects on radiosensitization
